Test results as given in US20040259926A1, “3-Aryloxy and 3-heteroaryloxy substituted benzo[b]thiophenes as therapeutic agents” (priority 2003, published 2004).
Where a name gives a salt, the structure may show the parent alone.

Experiments:
[1] = target: T1, PI3Kγ (recombinant p101/p110γ protein) (Homo sapiens, UniProt P48736); assay: PI3Kγ In Vitro Kinase Assay; assay type: biochemical; details: purified recombinant p101/p110γ with G protein β1/γ2 subunits; 20 μM ATP, [γ-32P-ATP]; 25 μM PIP2 lipid micelles; 20 minutes at room temperature
T1 construct: HA; made in house; host or cells: Spodoptera frugiperda (Sf9) cells, baculovirus co-infection
How it was run: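 Baculovirus/Sf9-expressed p101/p110γ (~2.7 nM) with Gβ1/γ2 (~57.7 nM) in HEPES/NaCl/EGTA/DTT buffer; 20 μM ATP plus [γ-32P]ATP, micelles of 25 μM PIP2, 300 μM PE, 10 mM MgCl2. Reactions ran 20 minutes at room temperature; radiolabelled PIP3 captured on glass-fibre filters and counted for IC50.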

T1 sequence (P48736 whole entry, species assumed): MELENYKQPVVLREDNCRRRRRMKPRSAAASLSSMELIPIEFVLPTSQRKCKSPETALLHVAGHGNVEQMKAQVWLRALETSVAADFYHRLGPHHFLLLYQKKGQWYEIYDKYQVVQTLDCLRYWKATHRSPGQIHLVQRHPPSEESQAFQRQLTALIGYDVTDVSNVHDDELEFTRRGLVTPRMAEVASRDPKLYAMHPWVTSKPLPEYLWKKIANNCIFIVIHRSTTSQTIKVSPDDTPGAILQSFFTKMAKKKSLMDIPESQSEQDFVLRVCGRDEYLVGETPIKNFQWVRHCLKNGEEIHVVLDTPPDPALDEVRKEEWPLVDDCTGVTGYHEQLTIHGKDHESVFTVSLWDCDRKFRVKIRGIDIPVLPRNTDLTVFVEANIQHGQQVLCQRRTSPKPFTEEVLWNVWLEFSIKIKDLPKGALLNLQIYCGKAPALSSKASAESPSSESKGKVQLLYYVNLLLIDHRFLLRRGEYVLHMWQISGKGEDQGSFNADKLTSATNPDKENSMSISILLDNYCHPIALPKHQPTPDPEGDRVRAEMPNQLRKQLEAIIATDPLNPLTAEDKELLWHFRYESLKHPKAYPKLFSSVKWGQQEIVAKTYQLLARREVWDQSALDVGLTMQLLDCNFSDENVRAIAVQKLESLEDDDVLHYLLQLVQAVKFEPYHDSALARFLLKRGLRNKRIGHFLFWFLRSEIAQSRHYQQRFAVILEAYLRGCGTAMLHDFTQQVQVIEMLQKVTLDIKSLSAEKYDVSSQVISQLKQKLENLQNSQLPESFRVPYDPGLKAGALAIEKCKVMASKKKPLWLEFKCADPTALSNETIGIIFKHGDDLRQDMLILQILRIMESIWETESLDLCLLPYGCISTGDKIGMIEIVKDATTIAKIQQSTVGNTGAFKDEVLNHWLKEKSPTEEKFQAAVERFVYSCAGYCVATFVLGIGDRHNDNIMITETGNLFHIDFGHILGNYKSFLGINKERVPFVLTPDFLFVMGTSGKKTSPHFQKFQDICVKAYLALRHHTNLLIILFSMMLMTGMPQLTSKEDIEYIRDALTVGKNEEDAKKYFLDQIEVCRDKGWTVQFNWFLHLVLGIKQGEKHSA
T1 sequence (Q8WYR1 whole entry partner, species assumed): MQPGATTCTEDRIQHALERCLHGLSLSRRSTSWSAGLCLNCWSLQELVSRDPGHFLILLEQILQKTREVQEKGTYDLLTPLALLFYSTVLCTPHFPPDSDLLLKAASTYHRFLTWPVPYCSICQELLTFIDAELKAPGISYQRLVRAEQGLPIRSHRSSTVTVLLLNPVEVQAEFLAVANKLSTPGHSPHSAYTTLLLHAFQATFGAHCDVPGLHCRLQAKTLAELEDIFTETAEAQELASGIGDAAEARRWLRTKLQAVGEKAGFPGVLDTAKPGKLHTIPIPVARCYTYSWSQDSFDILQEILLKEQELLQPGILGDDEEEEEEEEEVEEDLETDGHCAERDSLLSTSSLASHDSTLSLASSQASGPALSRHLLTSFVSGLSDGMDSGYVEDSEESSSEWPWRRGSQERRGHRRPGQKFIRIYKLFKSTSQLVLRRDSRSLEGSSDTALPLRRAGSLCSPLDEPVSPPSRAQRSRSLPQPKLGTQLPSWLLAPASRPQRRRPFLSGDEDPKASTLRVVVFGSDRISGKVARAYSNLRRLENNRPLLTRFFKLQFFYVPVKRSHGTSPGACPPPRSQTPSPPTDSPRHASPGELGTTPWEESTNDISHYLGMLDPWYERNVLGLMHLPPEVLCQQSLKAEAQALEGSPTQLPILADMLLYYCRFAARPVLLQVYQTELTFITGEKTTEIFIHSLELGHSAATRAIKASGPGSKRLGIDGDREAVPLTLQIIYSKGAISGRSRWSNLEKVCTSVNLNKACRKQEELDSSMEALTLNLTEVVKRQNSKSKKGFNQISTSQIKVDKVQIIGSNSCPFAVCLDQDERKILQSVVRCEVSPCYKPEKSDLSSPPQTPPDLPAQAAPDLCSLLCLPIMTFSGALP

Compound | melting point [°C] | IC50 [1] [nM]
COc1cc2sc(C(=O)Nc3nnn[nH]3)c(OCc3ccc4ccccc4c3)c2cc1OC [Example C.9, 5,6-Dimethoxy-3-(naphthalen-2-ylmethoxy)-benzo[b]thiophene-2-carboxylic acid (1H-tetrazol-5-yl)-amide] | 204 | –
COc1cc2sc(C(=O)Nc3nnn[nH]3)c(Oc3ccc(CCCSc4ccc(Cl)cc4)cc3)c2cc1C [Example D.8, 3-{4-[3-(4-Chlorophenenyl)sulfanylpropyl]phenoxy}-6-methoxy-5-methylbenzo[b]thiophene-2-caboxylic acid(1H-tetrazolyl)amide trifluroacetic acid salt] | – | 2610
Cc1cc2sc(C(=O)Nc3nn[nH]n3)c(Oc3ccc(C4CCCCC4)cc3)c2cc1O [Example H.1, 3-(4-Cyclohexyl-phenoxy)-5-hydroxy-6-methyl-benzo[b]thiophene-2-carboxylic acid (2H-tetrazol-5-yl)-amide] | – | 28
Cc1cc2sc(C(=O)Nc3nn[nH]n3)c(Oc3ccc(C4CCCCC4)cc3)c2cc1OC(F)F [Example H.2, 3-(4-Cyclohexyl-phenoxy)-5-difluoromethoxy-6-methyl-benzo[b]thiophene-2-carboxylic acid (2H-tetrazol-5-yl)-amide] | – | 230
COc1cc2c(Oc3ccc(C4CCCCC4)cc3)c(C(=O)Nc3nnn(C)n3)sc2cc1C [Example K.1, 3-(4-Cyclohexyl-phenoxy)-5-methoxy-6-methyl-benzo[b]thiophene-2-carboxylic acid (2-methyl-2H-tetrazol-5-yl)-amide] | – | 1930
COc1cc2c(Oc3ccc(C4CCCCC4)cc3)c(C(=O)N(C)c3nn[nH]n3)sc2cc1C [Example K.2, 3-(4-Cyclohexyl-phenoxy)-5-methoxy-6-methyl-benzo[b]thiophene-2-carboxylic acid methyl-(2H-tetrazol-5-yl)-amide] | 197 to 198 | 1610
CCOc1cc2c(Oc3ccc(C4CCCCC4)cc3)c(C(=O)Nc3nnn[nH]3)sc2cc1C [Example L.1, 3-(4-cyclohexyl-phenoxy)-5-ethoxy-6-methyl-benzo[b]thiophene-2-carboxylic acid (1H-tetrazol-5-yl)-amide] | – | 115
